From patent publication US8592421B2, “Cyclic bioisosters of purine system derivatives and a pharmaceutical composition based thereon” (priority 2003, dated 2013)

Tests used:
[1] = Electrochemical activity: polarographic reduction on mercury dripping electrode; type: physicochemical; conditions: for number of electrons participating in the reduction reaction: calculated with Geirovsky-Ilkovich equation; for i: 2.0% sodium chloride background, 9·10^−4 M; for i / −E1/2: 37° C., forward trace, average for the group of compounds; for −E1/2: vs SCE; for half-wave potential more positive at reverse stroke compared to forward stroke: polarograms of reverse stroke
Protocol: The study was carried out on a general-purpose polarograph PU-1 with a two-coordinate recorder of the “LKD” type using a three-electrode thermostatically controlled polarographic cell and mercury dripping electrode (MDE) with forced separation of the drop and a dropping period of 0.5 second. A platinum wire was used as an auxiliary electrode and a saturated calomel electrode (SCE) was used as a control electrode.
2.0% solutions of sodium chloride having pH 7.0, 7.2, 7.4, 7.6 were used as a background; the pH values of the background solution were corrected by a solution of sodium hydroxide. The polarographic cell was filled with 5.0 ml of the background solution and for 5 minutes was purged with nitrogen for removing the dissolved oxygen. Then 0.5 ml of solution of the studied substance was added to the background solution, and the polarogram was recorded as a polarographic wave. The concentration of the compounds in the polarographic cell was 9·10^−4 M.
The pH was measured on the pH-meter with an accuracy of +0.05 pH units. The polarographic measurements were carried out at a temperature of 37° C. The recording of polarograms of the investigated materials was effected under conditions of DC current at a scanning rate of the potential 10.0 mV/s with a active scanning stroke from a potential 0 to −0.5 V and sweep retrace from a −0.5 V to 0. The electric-current sensitivity was 5.0 mkA. The scale by the coordinate of the potentials was 50.0 mV/cm. The values of potentials of the half-wave E1/2 of the investigated materials are given with respect to the SCE potential.
The polarogram parameters such as a limiting current ilim and E1/2 were determined by the graphic method. The number of electrons participating in the reaction was calculated on the basis of the analysis of the polarographic wave using the Geirovsky-Ilkovich equation.
The calculation of the number of electrons participating in the reduction reaction was effected using the Geirovsky-Ilkovich equation: […]

[2] = system: embryonic fibroblasts of mouse NIH-3T3; test: Effect on endocellular pHi of fibroblasts (microspectrofluorimetry with FDA / BCECF-AM); type: cell-based; conditions: for rise of pHi: fibroblasts in an attached spread state; for change of pHi: medium DME without blood serum, 20 minutes; for increase of pHi of cytosol: medium with 10.0% blood serum, 20 minutes after addition
Protocol: The effect of the compounds according to the invention on the endocellular pH, embryonic fibroblasts of mouse NIH-3T3 supplied by the All-Russian Collection of Cellular Cultures of the Institute of Cytology of the Russian Academy of Sciences St. Petersburg was investigated. The cells were grown in the DMEM (Sigma) medium containing 2.2 g/l of sodium bicarbonate with addition of 80.0 mkg/ml of gentamicin and 10.0% embryonal veal serum at a temperature of 37° C. in an atmosphere containing 5.0% of carbon dioxide. For these experiments use was also made of a medium buffer with 5.0 mM of HEPES and 15.0 mM of sodium bicarbonate without serum or with addition of 5.0% serum. The cells were calculated with the help of a hemocytometer. A share of the dead cells was determined by colouring trypan blue.
The measurements of the endocellular pHi were carried out with the help of colorants FDA (Sigma) and BCECF-AM (Calbiochem) on a microspectrofluorimeter by a standard technique (Koshevoy Yu. V., Akatov V. S., Grobova M. E. Microspectrofluorimeter for measuring endocellular pH (micro pH)”. Devices and equipment for studies in the field of physical-and-chemical biology and biotechnology. Pushchino, 1990. P. 8-14).
The cells at a temperature of 37° C. were colored within 5 minutes with 5.0 mkM PDA that before the colouring was prepared from a 10.0 mM solution in acetone by dilution for 30 minutes in a phosphatic buffer to 0.1 mM or 2.0 mkM 1.0 mM solution BCECF-AM in DMSO.
The two-wave method of determining pHi was used based on the ratio intensities of fluorescence of the cells on two wavelengths (Akatov V. S. et all), “Endocellular pH and substrate dependence of proliferation of fibroblasts of Chinese hamster, Cytology, 1991, 33 (7), p. 86-94). The fluorescence was excited by light at λ=490 nm, the emission was recorded simultaneously with two photomultipliers on wavelengths λ=535 nm and λ=570 nm. The K-ratio of the fluorescence on two wavelengths was determined with a deduction of the background fluorescence of the medium near the investigated cells for 40-60 individual cells, which are then averaged taking into account the measurement error. A thermostatically controlled table was used that allowed measurements to be conducted at a temperature of 37° C. An account was taken for the photodynamic damage of the pigmented cells during long-time continuous illumination by excited light. The readings were taken from a section of the preparation exposed to light for not more than 5 minutes.
The calibration curves for determining the absolute pHi values by magnitude K were constructed using the Thomas technique (Thomas J. A., Bushbaum R. N., Zimniak A. w Racker E. “Intracellular pH measurements in Ehrlich ascites tumor cells utilizing spectroscopic probe generated in situ”, Biochemistry, 1979, v. 18, p. 2210-2218), for which case the pigmented cells treated for 5-10 minutes with carboxyacidic nigericyn (Calbiochem) at a concentration of 5-10 mkg/ml was placed in a solution with a high content of potassium—130 mM KCl, 1.0 mM MgCl2, 20.0 mM of HEPES) and with pH values from 6.2 to 7.6. The K values were measured in the media with different pH assuming that pHi of the cells equals to the pH of the medium due to the action of nigericyn, which exchanges potassium ions for protons and at a high content of potassium in the medium counterbalances the pH of the medium and cells. Calibration curves were used based on the fluorescence of same medium with addition of 5.0 mkM of fluorescence or BCECF were used to the control the stability of the of the instrument readings.
The cells were colored by pigment BCECF-AM and pHi was measured 10 minutes after incubation in the medium with an appropriate pH value. […]

| SMILES | number of electrons participating in the reduction reaction [1] | i ([1]; pH 7.0) [mkA] | −E1/2 ([1]; pH 7.0) [V] | i ([1]; pH 7.2) [mkA] | −E1/2 ([1]; pH 7.2) [V] | i ([1]; pH 7.4) [mkA] | −E1/2 ([1]; pH 7.4) [V] | i ([1]; pH 7.6) [mkA] | −E1/2 ([1]; pH 7.6) [V] | half-wave potential more positive at reverse stroke compared to forward stroke [1] [mV] | rise of pHi ([2]; 2.0 mkg/ml, on the average) [unit pHi] | rise of pHi ([2]; 20.0 mkg/ml, on the average) [unit pHi] | change of pHi ([2]; 0.02 mkg/ml) | change of pHi ([2]; 0.2 mkg/ml) | change of pHi ([2]; 2.0 mkg/ml, on the average) [unit pHi] | change of pHi ([2]; 20.0 mkg/ml, on the average) [unit pHi] | change of pHi ([2]; 200 mkg/ml) | change of pHi ([2]; 1000 mkg/ml) | increase of pHi of cytosol ([2]; 0.02 mkg/ml) | increase of pHi of cytosol ([2]; 0.2 mkg/ml, on the average) [unit pH] | further results |
| --- | --- | --- | --- | --- | --- | --- | --- | --- | --- | --- | --- | --- | --- | --- | --- | --- | --- | --- | --- | --- | --- |
| O=c1[nH][nH]c(=O)c2ncccc12.[Na] [Compound 7, sodium salt of pyrido[2,3-d]-6H-pyridazine-5,8-dione] | 3.72 | 0.26 ± 0.04 | 0.11 ± 0.02 | 0.31 ± 0.02 | 0.11 ± 0.03 | 0.27 ± 0.03 | 0.105 ± 0.01 | 0.30 ± 0.01 | 0.105 ± 0.02 | 25.0 | 0.10 | 0.07 | no effect was found | no effect was found | 0.08 | 0.08 | no effect was found | no effect was found | do not initiate a change of pH | 0.1 | increase of pHi of cytosol ([2]; 2.0 mkg/ml, on the average): 0.12 unit pH; increase of pHi of cytosol ([2]; 20.0 mkg/ml): do not initiate a change of pH |
| O=c1[nH][nH]c(=O)c2ncncc12.[Li] [Compound 35, lithium salt of pyrimido[4,5-d]-6H-pyridazine-5,8-dione] | 3.5 | 0.30 ± 0.05 | 0.08 ± 0.02 | 0.26 ± 0.02 | 0.085 ± 0.015 | 0.30 ± 0.03 | 0.085 ± 0.02 | 0.30 ± 0.02 | 0.09 ± 0.02 | 27.0 | 0.10 | 0.07 | no effect was found | no effect was found | 0.08 | 0.08 | no effect was found | no effect was found | do not initiate a change of pH | 0.1 | increase of pHi of cytosol ([2]; 2.0 mkg/ml, on the average): 0.12 unit pH; increase of pHi of cytosol ([2]; 20.0 mkg/ml): do not initiate a change of pH |
| O=C([O-])c1ccc2c(=O)[nH][nH]c(=O)c2c1.O=C([O-])c1ccc2c(=O)[nH][nH]c(=O)c2c1.[Na+].[Na+] [Compound 18, disodium salt of 6-carboxy-benzo[d]-3H-pyridazine-1,4-dione] | 4.09 | 0.23 ± 0.03 | 0.092 ± 0.02 | 0.30 ± 0.01 | 0.09 ± 0.01 | 0.29 ± 0.02 | 0.092 ± 0.02 | 0.31 ± 0.02 | 0.09 ± 0.01 | 30.0 | 0.10 | 0.07 | no effect was found | no effect was found | 0.08 | 0.08 | no effect was found | no effect was found | do not initiate a change of pH | 0.1 | increase of pHi of cytosol ([2]; 2.0 mkg/ml, on the average): 0.12 unit pH; increase of pHi of cytosol ([2]; 20.0 mkg/ml): do not initiate a change of pH |
| O=c1[nH]n([C@@H]2O[C@H](CO)[C@@H](O)[C@H]2O)c(=O)c2ncnc(O)c12.[Na] [Compound 33, sodium salt of 4-hydroxy-7-(β-D-ribofuranosile)pyrimido[4,5-d]-6H-pyridazine-5,8-dione] | 3.5 | 0.30 ± 0.05 | 0.08 ± 0.02 | 0.26 ± 0.02 | 0.085 ± 0.015 | 0.30 ± 0.03 | 0.085 ± 0.02 | 0.30 ± 0.02 | 0.09 ± 0.02 | 27.0 |  |  |  |  |  |  |  |  |  |  |  |
